Measurements published in ChEMBL document CHEMBL1130226, “2,4-Diaminothieno[2,3-d]pyrimidine lipophilic antifolates as inhibitors of Pneumocystis carinii and Toxoplasma gondii dihydrofolate reductase” (J Med Chem, 1997).

Experiments:
[1] = molecular target: T1, Bifunctional dihydrofolate reductase-thymidylate synthase (Toxoplasma gondii, UniProt Q07422)
T1 sequence (Q07422 whole entry): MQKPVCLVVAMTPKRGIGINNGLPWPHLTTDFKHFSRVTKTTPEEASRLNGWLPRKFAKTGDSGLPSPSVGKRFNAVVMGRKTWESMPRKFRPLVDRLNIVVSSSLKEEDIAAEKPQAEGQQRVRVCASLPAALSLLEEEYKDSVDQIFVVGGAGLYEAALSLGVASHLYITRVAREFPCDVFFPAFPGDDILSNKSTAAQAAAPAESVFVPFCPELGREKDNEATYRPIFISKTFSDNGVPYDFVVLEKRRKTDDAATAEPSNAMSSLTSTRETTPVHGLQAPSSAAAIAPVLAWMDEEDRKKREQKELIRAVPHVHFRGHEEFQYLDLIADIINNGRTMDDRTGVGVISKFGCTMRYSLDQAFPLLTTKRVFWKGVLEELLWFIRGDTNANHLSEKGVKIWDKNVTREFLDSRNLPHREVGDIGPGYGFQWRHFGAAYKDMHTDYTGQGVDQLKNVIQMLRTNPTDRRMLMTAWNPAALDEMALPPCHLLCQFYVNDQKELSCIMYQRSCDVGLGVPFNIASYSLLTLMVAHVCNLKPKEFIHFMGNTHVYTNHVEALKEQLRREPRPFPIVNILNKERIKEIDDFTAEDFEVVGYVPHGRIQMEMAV
Description: Inhibition of Toxoplasma gondii Dihydrofolate Reductase

Dihydrofolate reductase [2] = molecular target: T2, Dihydrofolate reductase (Rattus norvegicus, UniProt Q920D2)
T2 sequence (Q920D2 whole entry): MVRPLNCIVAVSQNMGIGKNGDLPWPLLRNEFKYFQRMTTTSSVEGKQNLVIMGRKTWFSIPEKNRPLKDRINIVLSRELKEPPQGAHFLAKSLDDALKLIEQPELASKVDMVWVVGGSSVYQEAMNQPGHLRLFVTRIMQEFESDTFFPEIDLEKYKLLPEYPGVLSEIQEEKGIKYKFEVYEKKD
Description: Inhibition of rat liver Dihydrofolate Reductase

Dihydrofolate reductase [3] = molecular target: T3, Dihydrofolate reductase (Pneumocystis carinii, UniProt P16184)
T3 sequence (P16184 whole entry): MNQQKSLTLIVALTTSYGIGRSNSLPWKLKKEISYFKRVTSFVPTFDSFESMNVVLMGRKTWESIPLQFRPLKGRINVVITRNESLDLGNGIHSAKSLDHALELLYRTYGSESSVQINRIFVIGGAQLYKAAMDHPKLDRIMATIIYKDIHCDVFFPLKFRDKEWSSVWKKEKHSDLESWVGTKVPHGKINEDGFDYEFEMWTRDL
Description: Inhibition of Pneumocystis carinii Dihydrofolate Reductase

[4] = Selectivity ratio of IC50 (rat liver)/IC50 (Pneumocystis carinii)
[5] = Selectivity ratio of IC50 (rat liver)/IC50 (Toxoplasma gondii

Row | Structure (SMILES) | IC50 [1] | IC50 (Dihydrofolate reductase [2]) | IC50 (Dihydrofolate reductase [3]) | Selectivity ratio [4] | Selectivity ratio [5]
1 | COc1ccc(OC)c(N(C)Cc2c(Br)sc3nc(N)nc(N)c23)c1 | > 10 µM | > 10 µM | > 10 µM | – | –
2 | COc1ccc(OC)c(NCc2c(Br)sc3nc(N)nc(N)c23)c1 | > 100 µM | 33 µM | > 100 µM | – | –
3 | COc1cc(N(C)Cc2c(Br)sc3nc(N)nc(N)c23)cc(OC)c1OC | 127 µM | 28 µM | 31 µM | 0.88 | –
4 | COc1cc(NCc2c(Br)sc3nc(N)nc(N)c23)cc(OC)c1OC | 34 µM | 17 µM | 13 µM | 1.2 | –
5 | COc1cc(Cc2cnc(N)nc2N)cc(OC)c1Br [BRODIMOPRIM] | 0.017 µM | 0.015 µM | 0.031 µM | 0.048 | 0.088
6 | Nc1nc(N)c2c(CNc3cc(Cl)c(-n4cccc4)c(Cl)c3)c(Br)sc2n1 | 26 µM | 10 µM | 7.5 µM | 1.4 | 0.39
